The values below are quoted from earlier work in article PMC4610172, “5-Arylaminouracil Derivatives as Potential Dual-Action Agents” (Acta Naturae, 2015).

The subject of the data set is MS-115 strain with multiple-drug resistance. The conditions noted are these: MS-115 resistant to isoniazid, rifampicin, streptomycin, ethambutol, pyrazinamide; cited from earlier work.

Consider `CCCCOc1ccc(Nc2cn(C3C=CC(O)C3)c(=O)n(C3C=CC(O)C3)c2=O)cc1` (stereo not shown) [Compound 19], for which the “Activity against MS-115 strain relative to sensitive H37Rv laboratory strain” value is recorded as “higher activity against the MS-115 strain”.
